Assay results from patent US8183230B2, “Antimicrobial preservatives to achieve multi-dose formulation using beta-cyclodextrins for liquid dosage forms” (priority 2004, dated 2012).

Experiments:
[1] = Calculated non-sequestered concentrations in formulations
Excerpt: These constants were used to calculate the concentration of non-sequestered meta-cresol in the formulations tested for anti-microbial efficacy.
The appearance of a plateau at the higher concentrations is only due to the limitation in the bactericidal efficacy measurement method. As the method consists in evaluating the population not killed by the preservative, when the whole population is dead (i.e. none is detectable any more ˜100%) the figure quoted is of the form: a log reduction greater than a value usually between 3 and 5.
The formulations were analyzed for preservative effectiveness.

[2] = Stability measurements (accelerated stability)
Protocol: Stability Measurements. Potential lead formulations were evaluated under various accelerated stability conditions in order to assess potency and purity of compound of Formula Ia, preservative content and SBE-CD content. For example, in one accelerated stability study, potential lead formulations were placed in stability ovens to measure short-term thermal stability. […] Purity and potency assays to measure compound of Formula Ia, as well as antimicrobial preservatives and SBE-CD content, were performed using validated HPLC methodology. SBE-CD was assayed using GTP 5984.

[3] = Solubility analysis (solubility method) for binding constant with SBE-CD; settings: for K11 (equilibrium): meta-cresol saturated solubility in varying SBE-CD; for Slope / y-intercept: meta-cresol solubility vs. SBE-CD concentration
Protocol: Traditional solubility methods were performed initially to determine the solubility and binding constants of compound of Formula Ia and preservative with SBE-CD.
Binding was calculated for meta-cresol using solubility analysis. The experiment was performed at different concentrations of compound of Formula Ia to determine if there was any effect from the presence of drug in solution on the meta-cresol binding constant. Meta-cresol solubility was measured in excess (saturated) meta-cresol and the equilibrium binding constant was calculated using the following equation:
[formula] Where St is the total solubility of meta-cresol, s0 is the inherent solubility of meta-cresol, Lt is the total concentration of SBE-CD (ligand) and K11 is the equilibrium binding constant of meta-cresol assuming a 1 to 1 binding stoichiometry.

[4] = test system: Escherichia coli, Pseudomonas aeruginosa, Staphylococcus aureus, Candida albicans, Aspergillus niger; settings: as indicated by literature; cited from earlier work
[5] = Equilibrium dialysis method for determining binding constants; settings: for Keq / k: binary, SBE-CD 1.0 mM
Excerpt: In the present invention, the method to determine binding constants utilizes equilibrium dialysis in the development of a multi-use parenteral formulation containing SBE-CD and a preservative. In particular, the method was applied in developing a parenteral formulation comprising the compound of Formula Ia, a cyclodextrin (SBE-CD) and a preservative (meta-cresol). This approach is applicable to compounds other than the compound of Formula Ia in developing parenteral formulations and is within the scope of this invention. […] The significance of this procedure is its ability to measure the binding constant of multiple compounds competing for binding with the cyclodextrin. The experimental dialysis data also provides an easily interpreted representation of binding in the formulation by visualizing the degree of interaction by the equilibrium established following dialysis.
Equilibrium dialysis permits calculation of binding constants by modeling the resultant diffusion rate across a semi-permeable membrane with an equilibrium end point. Equilibrium dialysis is performed by allowing the substrate in a solution containing bound substrate and ligand in a donor compartment of an equilibrium dialysis apparatus (cell) to equilibrate over time with an acceptor compartment. Ono, N., Hirayama, F., Arima, H., Uekama, K. “Determination of Stability Constant of β-Cyclodextrin Complexes Using the Membrane Permeation Technique and the Permeation Behavior of Drug Competing Agent-β-Cyclodextrin Ternary Systems” Eur. J. Pharm. Sci. 1999 9:133-139. The acceptor cell contains no ligand. The membrane is semi-permeable allowing the typically low molecular weight substrates to freely diffuse, while the cyclodextrin (MW=2163) remains in the donor compartment. Sampling from both compartments over time yields a time-concentration profile of substrate in both the donor and acceptor compartments of the dialysis cell.
A mathematical model describing the diffusion rate of drug across the membrane can be derived for systems containing two or more components in solution. The dialysis rate and binding constant for the substrates are obtained by resolving the equation using nonlinear curve fitting software. Depending on the interactions between the components it is possible to describe the competitive binding that occurs in the solution. The equilibrium binding constant is a measure of the relative concentration of meta-cresol bound to SBE-CD according to the chemical equilibrium equation below: S=meta-cresol, L=SBE-CD. S:L indicates the complex formed between meta-cresol and SBE-CD.
The initial experiments established the equilibrium dialysis flux rates for compound of Formula Ia and meta-cresol across the 500 MWCO dialysis membrane. Three different concentrations of compound of Formula Ia were initially loaded into the donor side of the dialysis well. Samples were withdrawn at various time intervals and concentration of free component was measured using HPLC. […] The smoothed line was a fit to the data using the model for a unitary system presented in the discussion. The equilibrium point for all these control experiments was reached after 50% of the total drug was distributed uniformly across the donor and acceptor sides of the well. This asymptotic approach to equilibrium was modeled and the dialysis rates were calculated, Table II.
The primary method of analyzing the data was to perform calculations from equilibrium dialysis data, as described below. In particular, the rate of diffusion across the membrane was calculated using the following equations:
The rate of diffusion from the donor phase is defined by the following relationship: [D]t−[D]eq=([D]0−[D]eq)e^(−2kt) (1)
Rate of diffusion into the Acceptor Phase: [D]eq−[D]t=[D]eqe^(−2kt) (2) wherein
The basis of calculation in the presence of SBE-CD is to assume that complexation occurs only in the donor phase according to the standard complexation reaction:
The value for CyDF may be substituted into equation 8. […]

[6] = Compound of Formula Ia 00.00 mM
[7] = Compound of Formula Ia 10.67 mM
[8] = Compound of Formula Ia 21.34 mM
[9] = Compound of Formula Ia 42.67 mM
[10] = approximate ratio 1:1, Meta-cresol 1.1 mM
[11] = approximate ratio 1:2, Meta-cresol 0.6 mM
[12] = approximate ratio 1:4, Meta-cresol 0.3 mM

Cc1cccc(O)c1 [meta-cresol]
minimum concentration of non sequestered preservative ([1]; for preservative effectiveness in drug/cyclodextrin/preservative formulations): 2.1 mg/mL
calculated non-sequestered concentration ([1]; preferred formulation: 10 mgA/mL compound, 63 mg/mL SBE-CD, 3.3 mg/mL meta-cresol, pH 4.4): 2.8 mg/mL
stability in the formulation (in words) [2]: excellent stability
CONTENT (% INTENT) ([2]; 5° C., 1 week, Amber-Treated, 3 mg/mL meta-cresol, 100 mg/mL SBE-CD, 10 mgA/mL compound of Formula Ia): 102 % INTENT
CONTENT (% INTENT) ([2]; 5° C., 1 week, Amber-Untreated, 3 mg/mL meta-cresol, 100 mg/mL SBE-CD, 10 mgA/mL compound of Formula Ia): 102 % INTENT
CONTENT (% INTENT) ([2]; 5° C., 3 weeks, Amber-Treated, 3 mg/mL meta-cresol, 100 mg/mL SBE-CD, 10 mgA/mL compound of Formula Ia): 104 % INTENT
CONTENT (% INTENT) ([2]; 5° C., 3 weeks, Amber-Untreated, 3 mg/mL meta-cresol, 100 mg/mL SBE-CD, 10 mgA/mL compound of Formula Ia): 103 % INTENT
CONTENT (% INTENT) ([2]; 5° C., 6 weeks, Amber-Treated, 3 mg/mL meta-cresol, 100 mg/mL SBE-CD, 10 mgA/mL compound of Formula Ia): 104 % INTENT
CONTENT (% INTENT) ([2]; 5° C., 6 weeks, Amber-Untreated, 3 mg/mL meta-cresol, 100 mg/mL SBE-CD, 10 mgA/mL compound of Formula Ia): 102 % INTENT
CONTENT (% INTENT) ([2]; 5° C., 12 weeks, Amber-Treated, 3 mg/mL meta-cresol, 100 mg/mL SBE-CD, 10 mgA/mL compound of Formula Ia): 98 % INTENT
CONTENT (% INTENT) ([2]; 5° C., 12 weeks, Amber-Untreated, 3 mg/mL meta-cresol, 100 mg/mL SBE-CD, 10 mgA/mL compound of Formula Ia): 98 % INTENT
CONTENT (% INTENT) ([2]; 50° C., 1 week, Amber-Treated, 3 mg/mL meta-cresol, 100 mg/mL SBE-CD, 10 mgA/mL compound of Formula Ia): 99 % INTENT
CONTENT (% INTENT) ([2]; 50° C., 1 week, Amber-Untreated, 3 mg/mL meta-cresol, 100 mg/mL SBE-CD, 10 mgA/mL compound of Formula Ia): 100 % INTENT
CONTENT (% INTENT) ([2]; 50° C., 3 weeks, Amber-Treated, 3 mg/mL meta-cresol, 100 mg/mL SBE-CD, 10 mgA/mL compound of Formula Ia): 103 % INTENT
CONTENT (% INTENT) ([2]; 50° C., 3 weeks, Amber-Untreated, 3 mg/mL meta-cresol, 100 mg/mL SBE-CD, 10 mgA/mL compound of Formula Ia): 101 % INTENT
CONTENT (% INTENT) ([2]; 50° C., 6 weeks, Amber-Treated, 3 mg/mL meta-cresol, 100 mg/mL SBE-CD, 10 mgA/mL compound of Formula Ia): 104 % INTENT
CONTENT (% INTENT) ([2]; 50° C., 6 weeks, Amber-Untreated, 3 mg/mL meta-cresol, 100 mg/mL SBE-CD, 10 mgA/mL compound of Formula Ia): 102 % INTENT
CONTENT (% INTENT) ([2]; 50° C., 12 weeks, Amber-Treated, 3 mg/mL meta-cresol, 100 mg/mL SBE-CD, 10 mgA/mL compound of Formula Ia): 100 % INTENT
CONTENT (% INTENT) ([2]; 70° C., 1 week, Amber-Treated, 3 mg/mL meta-cresol, 100 mg/mL SBE-CD, 10 mgA/mL compound of Formula Ia): 100 % INTENT
CONTENT (% INTENT) ([2]; 70° C., 1 week, Amber-Untreated, 3 mg/mL meta-cresol, 100 mg/mL SBE-CD, 10 mgA/mL compound of Formula Ia): 100 % INTENT
CONTENT (% INTENT) ([2]; 70° C., 2 weeks, Amber-Treated, 3 mg/mL meta-cresol, 100 mg/mL SBE-CD, 10 mgA/mL compound of Formula Ia): 103 % INTENT
CONTENT (% INTENT) ([2]; 70° C., 2 weeks, Amber-Untreated, 3 mg/mL meta-cresol, 100 mg/mL SBE-CD, 10 mgA/mL compound of Formula Ia): 103 % INTENT
CONTENT (% INTENT) ([2]; 70° C., 3 weeks, Amber-Treated, 3 mg/mL meta-cresol, 100 mg/mL SBE-CD, 10 mgA/mL compound of Formula Ia): 100 % INTENT
CONTENT (% INTENT) ([2]; 70° C., 3 weeks, Amber-Untreated, 3 mg/mL meta-cresol, 100 mg/mL SBE-CD, 10 mgA/mL compound of Formula Ia): 102 % INTENT
CONTENT (% INTENT) ([2]; 70° C., 6 weeks, Amber-Treated, 3 mg/mL meta-cresol, 100 mg/mL SBE-CD, 10 mgA/mL compound of Formula Ia): 101 % INTENT
CONTENT (% INTENT) ([2]; 70° C., 6 weeks, Amber-Untreated, 3 mg/mL meta-cresol, 100 mg/mL SBE-CD, 10 mgA/mL compound of Formula Ia): 101 % INTENT
CONTENT (% INTENT) ([2]; 70° C., 12 weeks, Amber-Treated, 3 mg/mL meta-cresol, 100 mg/mL SBE-CD, 10 mgA/mL compound of Formula Ia): 100 % INTENT
CONTENT (% INTENT) ([2]; 70° C., 12 weeks, Amber-Untreated, 3 mg/mL meta-cresol, 100 mg/mL SBE-CD, 10 mgA/mL compound of Formula Ia): 100 % INTENT
CONTENT (% INTENT) ([2]; ICH Photostability, 1X ICH UV/FI, Amber-Treated, 3 mg/mL meta-cresol, 100 mg/mL SBE-CD, 10 mgA/mL compound of Formula Ia): 102 % INTENT
CONTENT (% INTENT) ([2]; ICH Photostability, 1X ICH UV/FI, Amber-Untreated, 3 mg/mL meta-cresol, 100 mg/mL SBE-CD, 10 mgA/mL compound of Formula Ia): 102 % INTENT
loss / potency decrease ([2]; after 12 weeks at 70° C., relative to 1 week at 5° C., 3 mg/mL meta-cresol, 100 mg/mL SBE-CD, 10 mgA/mL compound of Formula Ia): 2%
ACCEPTABLE STABILITY ([2]; pH 4.4, 10% SBE-CD, 10 mgA/mL compound of Formula Ia): ✓
Average Binding Constant ([3]; average over Compound of Formula Ia 00.00 to 42.67 mM): 27.59 M⁻¹
K11 (equilibrium) [3, 6]: 24.53 M⁻¹
K11 (equilibrium) [3, 7]: 25.78 M⁻¹
K11 (equilibrium) [3, 8]: 35.46 M⁻¹
K11 (equilibrium) [3, 9]: 24.59 M⁻¹
Slope [3, 6]: 0.46
y-intercept [3, 6]: 34.06 mM
Slope [3, 7]: 0.46
y-intercept [3, 7]: 33.15 mM
Slope [3, 8]: 0.53
y-intercept [3, 8]: 32.15 mM
Slope [3, 9]: 0.43
y-intercept [3, 9]: 31.15 mM
equilibrium binding constant, averaged across the studies ([3]; solubility method, SBE-CD): 27.6 M⁻¹
binding constant with SBE-CD ([3]; solubility method, n=1): 28 M⁻¹
USP and Ph. Eur. criteria A or B requirements [4]: met both the USP and either Ph. Eur. criteria A or B requirements
Keq [5, 10]: 88 M⁻¹
k [5, 10]: 1.984 h⁻¹
Keq [5, 11]: 75 M⁻¹
k [5, 11]: 2.182 h⁻¹
Keq [5, 12]: 85 M⁻¹
k [5, 12]: 2.761 h⁻¹
binding constant with SBE-CD ([5]; equilibrium dialysis method, binary systems, drug ±352 M−1, n=3, preservative ±7 M−1): 83 M⁻¹
binding of preservative to cyclodextrin in ternary systems ([5]; ternary systems of SBE-CD, drug and preservative at the ratios tested, equilibrium profile): not bound to cyclodextrin
